Measured values published in patent US6706517B2, “Method for producing L-amino acids by fermentation” (priority 1999, dated 2004).
Counter-ions that a name gives are not always drawn.

Tests used:
Type in all cases: cell-based
Conditions in all cases: 33° C., 4 days
Escherichia coli H-9343 = experiment: Comparative test of growth on agar plate medium containing primaquine or novobiocin, mutant strain H-9343
Method: Furthermore, the obtained colony was subjected to a mutation treatment with NTG (0.2 mg/ml, 30° C., 30 minutes), followed by spreading on an agar plate culture medium containing 150 mg/liter primaquine disodium salt. Culturing was carried out thereon at 30° C. for 2 to 6 days, and growing large colonies were picked up and separated to obtain the strain H-9343. The strains H-9340, H-9342 and H-9343 were deposited on March 9, 1999 with the National Institute of Bioscience and Human-Technology, Agency of Industrial Science and Technology (1-3, Higashi 1-chome, Tsukuba-shi, Ibaraki-ken, Japan) under the Budapest Treaty with accession Nos. FERM BP-6673, FERM BP-6675 and FERM BP-6676, respectively.
(§1) Comparative test of growth on agar plate culture medium containing primaquine or novobiocin
(§2) The growth of the mutant strains H-9342 and H-9343 obtained in Example 1 was compared with the growth of the parent strain H-9340 on an agar plate medium containing primaquine or novobiocin.
(§3) Each of the mutant strains, which had been cultured in a natural medium for 24 hours and suspended in physiological saline, was spread at a cell density of 1 to 10 cells/cm^2 on the agar plate medium containing primaquine disodium salt or novobiocin monosodium salt at the same concentration as that at the time of acquisition of each mutant strain, and cultured at 33° C. for 4 days.

Escherichia coli H-9342 = experiment: Comparative test of growth on agar plate medium containing primaquine or novobiocin, mutant strain H-9342
Method: (§4) Preparation of an L-histidine-producing mutant strain having resistance to a DNA gyrase inhibitor or an L-histidine-producing mutant strain having both resistance to a DNA gyrase inhibitor and resistance to an aminoquinoline derivative The L-histidine-producing mutant strain H-9340 having resistance to 1,2,4-triazole alanine, which was derived from methionine-requiring Escherichia coli ATCC 21318 was subjected to a mutation treatment with N-methyl-N′-nitro-N-nitrosoguanidine (NTG) (0.2 mg/ml, 30° C., 30 minutes) according to a conventional method and spread on a 1 g/liter noboviocin monosodium salt-containing agar plate medium [0.2% glucose, 0.3% potassium dihydrogen phosphate, 0.6% disodium hydrogen phosphate, 0.01% magnesium sulfate, 0.05% sodium chloride, 0.1% ammonium chloride, 50 mg/liter required nutrient (DL-methionine) and 1.5% agar, pH 7.2].
The mutant strain was cultured on the agar plate medium at 30° C. for 2 to 6 days, and the growing large colonies were picked up and separated to obtain the strain H-9342.
as §1, §2, §3

Escherichia coli H-9340 = experiment: Comparative test of growth on agar plate medium containing primaquine or novobiocin, parent strain H-9340
Method: as §4, §1
The growth of the mutant strains H-9342 and H-9343 obtained in Example 1 was compared with the growth of the parent strain H-9340 on an agar plate medium containing primaquine or novobiocin. […]

[1] = 1 g/liter novobiocin monosodium salt in agar medium
[2] = 150 mg/liter primaquine disodium salt in agar medium

CO[C@@H]1[C@@H](OC(N)=O)[C@@H](O)[C@H](Oc2ccc3c(O)c(NC(=O)c4ccc(O)c(CC=C(C)C)c4)c(=O)oc3c2C)OC1(C)C [Novobiocin monosodium salt, novobiocin monosodium salt]
Growth or non-growth on agar plate medium (Escherichia coli H-9343; [1]): + | Growth or non-growth on agar plate medium (Escherichia coli H-9342; [1]): + | Growth or non-growth on agar plate medium (Escherichia coli H-9340; [1]): −

COc1cc(NC(C)CCCN)c2ncccc2c1 (stereo not shown) [Primaquine disodium salt, primaquine disodium salt]
Growth or non-growth on agar plate medium (Escherichia coli H-9343; [2]): + | Growth or non-growth on agar plate medium (Escherichia coli H-9342; [2]): − | Growth on the primaquine-containing culture medium (in words) (Escherichia coli H-9342; primaquine-containing agar medium): did not grow | Growth or non-growth on agar plate medium (Escherichia coli H-9340; [2]): −
